In patent publication US20050101595A1, “N-containing cycloalkyl-substituted amino-thiazole derivatives and pharmaceutical compositions for inhibiting cell proliferation and methods for their use” (PFIZER INC., priority 2003, published 2005):
Where a name gives a salt, the structure may show the parent alone. Read-outs that look alike come from different tables or passages of the source.

Tests used:
[1] = molecular target: human CDK4 and genetically truncated (1-264) cyclin D3 (Homo sapiens, UniProt P11802); assay: Inhibition of CDK4/Cyclin D Retinoblastoma Kinase Activity; format: biochemical; conditions: for Ki: apparent Ki, CDK4/truncated cyclin D3, Rb fragment substrate, 25 μM ATP
human CDK4 and genetically truncated (1-264) cyclin D3, sequence (P11802 whole entry, the tested form may be a part): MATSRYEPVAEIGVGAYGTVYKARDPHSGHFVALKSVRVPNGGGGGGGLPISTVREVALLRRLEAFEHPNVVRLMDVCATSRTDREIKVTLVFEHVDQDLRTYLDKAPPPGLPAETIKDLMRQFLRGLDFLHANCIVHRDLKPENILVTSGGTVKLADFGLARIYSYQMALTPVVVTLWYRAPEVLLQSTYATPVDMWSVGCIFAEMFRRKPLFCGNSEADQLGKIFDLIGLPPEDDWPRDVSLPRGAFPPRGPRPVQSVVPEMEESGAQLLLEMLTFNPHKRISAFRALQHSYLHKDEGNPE
human CDK4 and genetically truncated (1-264) cyclin D3, sequence (P30281 1-264 partner): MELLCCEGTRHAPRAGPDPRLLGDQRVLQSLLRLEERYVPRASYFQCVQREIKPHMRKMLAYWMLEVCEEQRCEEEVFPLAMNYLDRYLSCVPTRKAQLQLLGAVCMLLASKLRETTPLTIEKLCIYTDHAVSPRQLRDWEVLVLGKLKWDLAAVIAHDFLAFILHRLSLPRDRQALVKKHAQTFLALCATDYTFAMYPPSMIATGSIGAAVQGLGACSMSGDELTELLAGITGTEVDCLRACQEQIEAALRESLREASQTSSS
Outline: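 Apparent Ki values come from competitive or competitive tight-binding inhibition fits of background-corrected 32P/33P incorporation into His-tagged Rb fragment (386-928), captured on nitrocellulose. Reaction: 5 nM insect-cell-expressed human CDK4 with cyclin D3 (1-264), 25 μM ATP, pH 7.4 HEPES, 2% DMSO, 30° C., 20 min, extended to 60 min for tight-binding inhibitors.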

[2] = test system: HCT-116 cell line; assay: Inhibition of cell growth, tetrazolium salt (MTT) assay; format: cell-based; conditions: for HCT-116 % Inhibition at 0.25 μM: 0.25 μM compound; for IC50: Homo sapiens, HCT-116, 120 h, MTT, three to five days, read-out: HCT-116 IC50
Outline: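 First, cells were seeded in McCoy's 5A medium and held 4 h. Next, inhibitor concentrations in 0.5% (v/v) DMSO were applied for three to five days at 37° C, 5% CO2. Finally, after 4 h with 0.2 mg/mL MTT and medium removal, solubilized formazan was measured at 540 nm.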

[3] = molecular target: CDK2/Cyclin A (Homo sapiens, UniProt P24941); assay: Inhibition of CDK2/Cyclin A Retinoblastoma Kinase Activity; format: biochemical; conditions: for CDK2 % Inhibition At 0.03 μM: Table 2; for Ki: apparent Ki, CDK2/proteolyzed cyclin A, Rb fragment substrate, 25 μM ATP
Outline: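 Radiometric filter-binding readout of phosphate transfer to an Rb substrate fragment by purified CDK2/truncated cyclin A at 10 or 19 nM. Run at pH 7.4 with 25 μM ATP, 30 °C, 60–75 min, linear rates; background without enzyme subtracted, Ki from competitive-inhibition models.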

Nc1nc(NC2CCN(C(=O)c3ccccc3I)CC2)sc1C(=O)c1c(F)cccc1F [Example Q52]
CDK4 % Inhibition at 0.03 μM ([1]; 0.03 μM compound, Table 4): 53% | HCT-116 % Inhibition at 0.1 μM ([2]; 0.1 μM compound, HCT-116, Table 4): 0% | HCT-116 % Inhibition at 0.25 μM ([2]; HCT-116, Table 4): 24% | CDK2 % Inhibition at 0.03 μM ([3]; 0.03 μM compound, Table 4): 24%

Cc1cc(C(=O)N2CCC(Nc3nc(N)c(C(=O)c4c(F)cccc4F)s3)CC2)n(C(C)(C)C)n1 [Example R59]
CDK4 % Inhibition at 0.03 μM ([1]; at 0.03 μM): 25% | HCT-116 % Inhibition at 0.1 μM ([2]; HCT-116 cells, at 0.1 μM): 4% | HCT-116 5 Inhibition at 0.25 μM ([2]; HCT-116 cells): 47 | CDK2 % Inhibition at 0.03 μM ([3]; at 0.03 μM): 16%

Cc1cc(C)c(NC(=O)N2CCC(Nc3nc(N)c(C(=O)c4c(F)cccc4F)s3)CC2)c(C)c1 [Example O55]
CDK4 % Inhibition at 0.03 μM ([1]; 0.03 μM compound, Table 2): 10% | HCT-116 % Inhibition at 0.25 μM ([2]; HCT-116, Table 2): 41% | CDK2 % Inhibition At 0.03 μM ([3]; 0.03 μM compound): 28%

Cc1cc(C)c(S(=O)(=O)N2CCC(Nc3nc(N)c(C(=O)c4c(F)cccc4F)s3)CC2)c(C)c1 [Example P10]
CDK4 % Inhibition at 0.03 μM ([1]; 0.03 μM compound, Table 3): 11% | HCT-116 % Inhibition at 0.1 μM ([2]; 0.1 μM compound, HCT-116, Table 3): 14% | HCT-116 % Inhibition at 0.25 μM ([2]; HCT-116, Table 3): 35% | CDK2 % Inhibition at 0.03 μM ([3]; 0.03 μM compound, Table 3): −14%

Nc1nc(NC2CCN(S(=O)(=O)c3ccc(CCN4C[C@@H]5[C@@H](N)[C@@H]5C4)nc3)CC2)sc1C(=O)c1c(F)cccc1F [Example N10, [4-Amino-2-(1-{6-[2-(1α, 5β, 6γ-amino-3-aza-bicyclo[3.1.0]hex-3-yl)-ethyl]-pyridine-3-sulfonyl}-piperidin-4-ylamino)-thiazol-5-yl]-(2,6-difluoro-phenyl)-methanone Hydrochloride Salt.]
Ki [1]: 0.21 nM | IC50 ([2]; first HCT-116 column (c4)): 380 nM | IC50 ([2]; second HCT-116 column (c5)): 3000 nM | Ki [3]: 1.3 nM

Nc1nc(NC2CCN(S(=O)(=O)c3cccnc3)CC2)sc1C(=O)c1c(F)cccc1F [Example F23, 1-{4-Amino-2-[1-(pyridine-3-sulfonyl)-piperidin-4-ylamino]-thiazol-5-yl}-1-(2,6-difluoro-phenyl)-methanone]
Ki [1]: 4.8 nM | IC50 ([2]; first HCT-116 column (c4)): 130 nM | IC50 ([2]; second HCT-116 column (c5)): 300 nM | Ki [3]: 2.8 nM

N#Cc1cccc(C(=O)N2CCC(Nc3nc(N)c(C(=O)c4c(F)cccc4F)s3)CC2)c1 [Example R129]
CDK4 % Inhibition at 0.03 μM ([1]; at 0.03 μM): 62% | HCT-116 % Inhibition at 0.1 μM ([2]; HCT-116 cells, at 0.1 μM): 0% | HCT-116 5 Inhibition at 0.25 μM ([2]; HCT-116 cells): 33 | CDK2 % Inhibition at 0.03 μM ([3]; at 0.03 μM): 41%

CN1C(=O)c2ccc(NC(=O)N3CCC(Nc4nc(N)c(C(=O)c5c(F)cccc5F)s4)CC3)cc2C1=O [Example O88]
CDK4 % Inhibition at 0.03 μM ([1]; 0.03 μM compound, Table 2): 12% | HCT-116 % Inhibition at 0.25 μM ([2]; HCT-116, Table 2): 45% | CDK2 % Inhibition At 0.03 μM ([3]; 0.03 μM compound): 31%

Nc1nc(NC2CCN(S(=O)(=O)CCCSc3ccccn3)CC2)sc1C(=O)c1c(F)cccc1F [Example K21, 1-(4-Amino-2-{1-[3-(pyridin-2-ylsulfanyl)-propane-1-sulfonyl]-piperidin-4-ylamino}-thiazol-5-yl)-1-(2,6-difluoro-phenyl)-methanone]
Ki [1]: 4.4 nM | IC50 ([2]; first HCT-116 column (c4)): > 500 nM | IC50 ([2]; second HCT-116 column (c5)): > 500 nM | Ki [3]: 2.7 nM

CN1CC[C@@H](c2ccc(S(=O)(=O)N3CCC(Nc4nc(N)c(C(=O)c5c(F)cccc5F)s4)CC3)cc2)C1 [Example F53, (4-Amino-2-{1-[4-(1-methyl-pyrrolidin-3S-yl)-benzenesulfonyl]-piperidin-4-ylamino}-thiazol-5-yl)-(2,6-difluoro-phenyl)-methanone]
Ki [1]: 0.61 nM | IC50 ([2]; first HCT-116 column (c4)): 90 nM | IC50 ([2]; second HCT-116 column (c5)): 500 nM | Ki [3]: 1.3 nM

Nc1nc(NC2CCN(C(=O)[C@H](Cc3ccccc3)NS(=O)(=O)c3ccc([N+](=O)[O-])cc3)CC2)sc1C(=O)c1c(F)cccc1F [Example R74]
CDK4 % Inhibition at 0.03 μM ([1]; at 0.03 μM): 20% | HCT-116 % Inhibition at 0.1 μM ([2]; HCT-116 cells, at 0.1 μM): 0.12% | HCT-116 5 Inhibition at 0.25 μM ([2]; HCT-116 cells): 42 | CDK2 % Inhibition at 0.03 μM ([3]; at 0.03 μM): 3%

Nc1nc(NC2CCN(C(=O)NC(=O)c3ccccc3)CC2)sc1C(=O)c1c(F)cccc1F [Example O26]
CDK4 % Inhibition at 0.03 μM ([1]; 0.03 μM compound, Table 2): 10% | HCT-116 % Inhibition at 0.25 μM ([2]; HCT-116, Table 2): 12% | CDK2 % Inhibition At 0.03 μM ([3]; 0.03 μM compound): 33%

CCCN(CCCS(=O)(=O)N1CCC(Nc2nc(N)c(C(=O)c3c(F)cccc3F)s2)CC1)CC1CC1 [Example K6, 1-(4-Amino-2-{1-[3-(cyclopropylmethyl-propyl-amino)propane-1-sulfonyl]-piperidin-4-ylamino}-thiazol-5-yl)-1-(2,6-difluoro-phenyl)-methanone.]
Ki [1]: 1.5 nM | IC50 ([2]; first HCT-116 column (c4)): 180 nM | IC50 ([2]; second HCT-116 column (c5)): 800 nM | Ki [3]: 5.8 nM
